Assay results as given in the NIST ThermoML archive (doi:10.1016/j.jct.2016.10.024).

Assay: mn = molality of the nth substance listed, in mol/kg
Details: 75 kPa, Liquid, Buoyancy - hydrostatic balance with magnetic suspension - one sinker

CCCC(N)=O [butanamide] + O
Details | mass density [kg/m3]
275.66 K, m1 = 0.1003 | 1000.06
275.66 K, m1 = 0.1971 | 1000.2
275.66 K, m1 = 0.301 | 1000.37
275.66 K, m1 = 0.4013 | 1000.56
275.66 K, m1 = 0.4955 | 1000.75
275.66 K, m1 = 0.6013 | 1000.97
275.66 K, m1 = 0.695 | 1001.2
275.66 K, m1 = 0.8012 | 1001.46
276.14 K, m1 = 0.1021 | 1000.06
276.14 K, m1 = 0.1961 | 1000.2
276.14 K, m1 = 0.2967 | 1000.37
276.14 K, m1 = 0.4955 | 1000.75
276.14 K, m1 = 0.6013 | 1000.96
276.14 K, m1 = 0.6982 | 1001.18
276.14 K, m1 = 0.8012 | 1001.42
276.14 K, m1 = 0.9855 | 1001.87
276.61 K, m1 = 0.1009 | 1000.05
276.61 K, m1 = 0.1973 | 1000.18
276.61 K, m1 = 0.2967 | 1000.33
276.61 K, m1 = 0.4013 | 1000.51
276.61 K, m1 = 0.5977 | 1000.89
276.61 K, m1 = 0.7003 | 1001.11
276.61 K, m1 = 0.8012 | 1001.35
276.61 K, m1 = 0.9976 | 1001.83
277.15 K, m1 = 0.1021 | 1000.09
277.15 K, m1 = 0.1961 | 1000.21
277.15 K, m1 = 0.2967 | 1000.35
277.15 K, m1 = 0.4955 | 1000.69
277.15 K, m1 = 0.6013 | 1000.9
277.15 K, m1 = 0.6982 | 1001.13
277.15 K, m1 = 0.8012 | 1001.4
277.15 K, m1 = 0.9855 | 1001.94
277.61 K, m1 = 0.1009 | 1000.08
277.61 K, m1 = 0.1973 | 1000.21
277.61 K, m1 = 0.2967 | 1000.36
277.61 K, m1 = 0.4013 | 1000.53
277.61 K, m1 = 0.5977 | 1000.89
277.61 K, m1 = 0.7003 | 1001.1
277.61 K, m1 = 0.8024 | 1001.32
277.61 K, m1 = 0.9976 | 1001.77
278.12 K, m1 = 0.1076 | 1000.07
278.12 K, m1 = 0.1971 | 1000.19
278.12 K, m1 = 0.3283 | 1000.38
278.12 K, m1 = 0.4191 | 1000.51
278.12 K, m1 = 0.5074 | 1000.65
278.12 K, m1 = 0.6233 | 1000.85
278.12 K, m1 = 0.7379 | 1001.04
278.12 K, m1 = 0.8761 | 1001.28
278.68 K, m1 = 0.1003 | 1000.05
278.68 K, m1 = 0.1971 | 1000.17
278.68 K, m1 = 0.301 | 1000.31
278.68 K, m1 = 0.4013 | 1000.46
278.68 K, m1 = 0.4955 | 1000.62
278.68 K, m1 = 0.6013 | 1000.81
278.68 K, m1 = 0.695 | 1001
278.68 K, m1 = 0.8012 | 1001.23
